Patent US20080113042A1, “PHARMACEUTICAL COMPOSITION AND METHOD FOR CANCER TREATMENT BASED ON COMBINATIONAL USE OF CONVENTIONAL ANTICANCER AGENTS AND GERANIUM OIL OR COMPOUNDS THEREOF” (priority 2006, published 2008)
≈ marks a conversion by molar mass, not a printed value.

Key:
A-549 = assay: In vitro cytotoxicity, MTT assay; assay type: cell-based; settings: Homo sapiens, A549, A-549 (lung), 48 hours
NCI-H1437 = assay: In vitro cytotoxicity, MTT assay; assay type: cell-based; settings: Homo sapiens, NCI-H1437 (lung), 48 hours
NCI-H838 = assay: In vitro cytotoxicity, MTT assay; assay type: cell-based; settings: Homo sapiens, NCI-H838 (lung), 48 hours
MCF-7 = assay: In vitro cytotoxicity, MTT assay; assay type: cell-based; settings: Homo sapiens, MCF7, MCF-7 (breast), 48 hours
MDA-MB-231 = assay: In vitro cytotoxicity, MTT assay; assay type: cell-based; settings: Homo sapiens, MDA-MB-231 (breast), 48 hours
SK-OV-3 = assay: In vitro cytotoxicity, MTT assay; assay type: cell-based; settings: Homo sapiens, SK-OV-3 (ovary), 48 hours
[1] = system: subcutaneously implanted solid tumors induced by MDA-MB-231 cells; assay: In vivo antitumor efficacy test, breast tumor-bearing nude mice; settings: MDA-MB-231 tumors in nude mice, intraperitoneally twice a week for 28 days; paclitaxel 5 mg/kg alone or paclitaxel 0.2 mg/kg + geraniol 45 mg/kg; p<0.001
Description: The antitumor efficacy of composition comprising paclitaxel and geraniol against the subcutaneously implanted solid tumors induced by MDA-MB-231 cells in nude mice was evaluated. Treatments were initiated when the tumors inoculated in nude mice reached a tumor volume of 50-100 mm^3, and this day was designated as Day 1. Mice were divided into 3 different groups consisting of five mice in each group, and administered intraperitoneally with normal saline (control), paclitaxel (5 mg/kg) in normal saline, or composition comprising paclitaxel (0.2 mg/kg) and geraniol (45 mg/kg) twice a week for 28 days. The size of tumor and change of body weight of each mouse were recorded.
The anticancer efficacy of the paclitaxel-geraniol composition was studied in breast tumor-bearing nude mice. […] In the control, mice were injected with normal saline. In Paclitaxel, mice were injected with paclitaxel (5 mg/kg) in normal saline. In the Paclitaxel-geraniol composition, mice were injected with composition comprising paclitaxel (0.2 mg/kg) and geraniol in normal saline.

Structure (SMILES) | IC50 (A-549) | IC50 (NCI-H1437) | IC50 (NCI-H838) | IC50 (MCF-7) | IC50 (MDA-MB-231) | IC50 (SK-OV-3) | tumor growth (size of tumor) versus control group [1]
O=c1[nH]cc(F)c(=O)[nH]1 [Composition 5-FU, Fluorouracil] | 5.9 µg/mL (≈ 45.4 µM) | > 100 µg/mL | 12.1 µg/mL (≈ 93 µM) | 38.7 µg/mL (≈ 298 µM) | 328 µg/mL (≈ 2520 µM) | 66.6 µg/mL (≈ 512 µM) | 
CC(=O)O[C@H]1C(=O)[C@@]2(C)[C@H]([C@H](OC(=O)c3ccccc3)[C@]3(O)C[C@H](OC(=O)[C@H](O)[C@@H](NC(=O)c4ccccc4)c4ccccc4)C(C)=C1C3(C)C)[C@]1(OC(C)=O)CO[C@@H]1C[C@@H]2O [Paclitaxel, paclitaxel] | 20.1 µg/mL (≈ 23.5 µM) | 36.8 µg/mL (≈ 43.1 µM) | 30.9 µg/mL (≈ 36.2 µM) | 46 µg/mL (≈ 53.9 µM) | 31.9 µg/mL (≈ 37.4 µM) | 56.5 µg/mL (≈ 66.2 µM) | significantly suppressed the tumor growth in a similar manner
